Test results: ChEMBL document CHEMBL3046591, “Design and synthesis of some azole derivatives as potential antimicrobial agents” (2012)
Calls of active or inactive are those of the source. The calls are words filed in the database; no cut-off is given here.

Assays:
Type in all cases: functional
[1] = system: Mycolicibacterium smegmatis; assay: Antibacterial activity against Mycobacterium smegmatis ATCC 607 after 18 hr by agar well diffusion method
Staphylococcus aureus [2] = assay: Antibacterial activity against Staphylococcus aureus ATCC 25923 after 18 hr by agar well diffusion method
Candida albicans [3] = assay: Antifungal activity against Candida albicans ATCC 60193 after 18 hr by agar well diffusion method
Bacillus cereus [4] = assay: Antibacterial activity against Bacillus cereus 702 Roma after 18 hr by agar well diffusion method
Klebsiella pneumoniae [5] = assay: Antibacterial activity against Klebsiella pneumoniae ATCC 13883 after 18 hr by agar well diffusion method
[6] = system: Yersinia pseudotuberculosis; assay: Antibacterial activity against Yersinia pseudotuberculosis ATCC 911 after 18 hr by agar well diffusion method
Escherichia coli [7] = assay: Antibacterial activity against Escherichia coli ATCC 25922 after 18 hr by agar well diffusion method
Enterococcus faecalis [8] = assay: Antibacterial activity against Enterococcus faecalis ATCC 29212 after 18 hr by agar well diffusion method
Listeria monocytogenes [9] = assay: Antibacterial activity against Listeria monocytogenes ATCC 43251 after 18 hr by agar well diffusion method
Klebsiella aerogenes [10] = assay: Antibacterial activity against Enterobacter aerogenes ATCC 13048 after 18 hr by agar well diffusion method
Candida tropicalis [11] = assay: Antifungal activity against Candida tropicalis ATCC 13803 after 18 hr by agar well diffusion method
Klebsiella pneumoniae [12] = assay: Antibacterial activity against Klebsiella pneumoniae ATCC 13883 at 10 mg after 18 hr by agar well diffusion method; conditions: ATCC 13883, 18 h, read-out: IZ
Staphylococcus aureus [13] = assay: Antibacterial activity against Staphylococcus aureus ATCC 25923 at 10 mg after 18 hr by agar well diffusion method; conditions: ATCC 25923, 18 h, read-out: IZ
Klebsiella aerogenes [14] = assay: Antibacterial activity against Enterobacter aerogenes ATCC 13048 at 10 mg after 18 hr by agar well diffusion method; conditions: ATCC 13048, 18 h, read-out: IZ
Bacillus cereus [15] = assay: Antibacterial activity against Bacillus cereus 702 Roma at 10 mg after 18 hr by agar well diffusion method; conditions: read-out: IZ
[16] = system: Yersinia pseudotuberculosis; assay: Antibacterial activity against Yersinia pseudotuberculosis ATCC 911 at 10 mg after 18 hr by agar well diffusion method; conditions: ATCC 911, 18 h, read-out: IZ
Escherichia coli [17] = assay: Antibacterial activity against Escherichia coli ATCC 25922 at 10 mg after 18 hr by agar well diffusion method; conditions: ATCC 25922, 18 h, read-out: IZ
Listeria monocytogenes [18] = assay: Antibacterial activity against Listeria monocytogenes ATCC 43251 at 10 mg after 18 hr by agar well diffusion method; conditions: ATCC 43251, 18 h, read-out: IZ
Enterococcus faecalis [19] = assay: Antibacterial activity against Enterococcus faecalis ATCC 29212 at 10 mg after 18 hr by agar well diffusion method; conditions: ATCC 29212, 18 h, read-out: IZ
Candida albicans [20] = assay: Antifungal activity against Candida albicans ATCC 60193 at 5 mg after 18 hr by agar well diffusion method; conditions: ATCC 60193, 18 h, read-out: IZ
Candida tropicalis [21] = assay: Antifungal activity against Candida tropicalis ATCC 13803 at 5 mg after 18 hr by agar well diffusion method; conditions: ATCC 13803, 18 h, read-out: IZ

| Structure (SMILES) | inhibition zone (IZ) [1] | inhibition zone (IZ) (Staphylococcus aureus [2]) | inhibition zone (IZ) (Candida albicans [3]) | inhibition zone (IZ) (Bacillus cereus [4]) | inhibition zone (IZ) (Klebsiella pneumoniae [5]) | inhibition zone (IZ) [6] | inhibition zone (IZ) (Escherichia coli [7]) | inhibition zone (IZ) (Enterococcus faecalis [8]) | inhibition zone (IZ) (Listeria monocytogenes [9]) | inhibition zone (IZ) (Klebsiella aerogenes [10]) | inhibition zone (IZ) (Candida tropicalis [11]) | also measured |
| --- | --- | --- | --- | --- | --- | --- | --- | --- | --- | --- | --- | --- |
| CN[C@@H]1[C@H](O[C@H]2[C@H](O[C@H]3[C@H](O)[C@@H](O)[C@H](N=C(N)N)[C@@H](O)[C@@H]3N=C(N)N)O[C@@H](C)[C@]2(O)C=O)O[C@@H](CO)[C@H](O)[C@H]1O [STREPTOMYCIN] | 35 mm |  |  |  |  |  |  |  |  |  |  |  |
| O=c1n(S(=O)(=O)c2ccc(Br)cc2)nc(Cc2ccccc2)n1Cc1ccco1 | 10 mm | 10 mm | inactive | inactive | 15 mm | 8 mm | 10 mm | 8 mm | inactive | 8 mm | inactive |  |
| CCCS(=O)(=O)n1nc(Cc2ccccc2)n(Cc2ccco2)c1=O | 15 mm | 15 mm | inactive | inactive | 10 mm | 10 mm | 8 mm | 8 mm | inactive | 8 mm | inactive |  |
| Cc1n[nH]c(=O)n1CC1CCCO1 (centres undefined) | 15 mm | 20 mm | inactive | 15 mm | 8 mm | inactive | inactive | 10 mm | 7 mm | 8 mm | inactive |  |
| Cc1nn(Cc2nnc(S)n2-c2ccccc2)c(=O)n1Cc1ccco1 | inactive | inactive | inactive | inactive | 10 mm | 10 mm | 6 mm | inactive | inactive | 6 mm | inactive |  |
| Cc1nn(S(=O)(=O)c2ccc([N+](=O)[O-])cc2)c(=O)n1Cc1ccco1 | 40 mm | 15 mm | inactive | 15 mm | 20 mm | 12 mm | 15 mm | 6 mm | inactive | 15 mm | inactive |  |
| O=c1[nH]nc(Cc2ccccc2)n1Cc1ccco1 | 10 mm | 20 mm | inactive | 8 mm | 10 mm | inactive | inactive | 10 mm | 8 mm | 10 mm | inactive |  |
| Cc1n[nH]c(=O)n1Cc1ccco1 | 10 mm | 20 mm | inactive | 8 mm | 10 mm | inactive | inactive | inactive | 6 mm | 10 mm | inactive |  |
| O=c1n(S(=O)(=O)c2ccc(Cl)cc2)nc(Cc2ccccc2)n1Cc1ccco1 | 10 mm | 15 mm | inactive | inactive | 10 mm | 8 mm | 6 mm | 10 mm | inactive | 8 mm | inactive |  |
| CC1(C)S[C@@H]2[C@H](NC(=O)[C@H](N)c3ccccc3)C(=O)N2[C@H]1C(=O)O [AMPICILLIN] |  |  | inactive |  |  |  |  |  |  |  | inactive | zone of inhibition at 10000 µg/disc (Klebsiella pneumoniae [12]): 18 mm; zone of inhibition at 10000 µg/disc (Staphylococcus aureus [13]): 35 mm; zone of inhibition at 10000 µg/disc (Klebsiella aerogenes [14]): 10 mm; zone of inhibition at 10000 µg/disc (Bacillus cereus [15]): 15 mm; zone of inhibition at 10000 µg/disc [16]: > 18 mm; zone of inhibition at 10000 µg/disc (Escherichia coli [17]): 10 mm; zone of inhibition at 10000 µg/disc (Listeria monocytogenes [18]): 10 mm; zone of inhibition at 10000 µg/disc (Enterococcus faecalis [19]): 10 mm |
| CCOC(=O)Cn1nc(C)n(Cc2ccco2)c1=O | 15 mm | 8 mm | 9 mm | 6 mm | 10 mm | inactive | inactive | inactive | 8 mm | 10 mm | 7 mm |  |
| OC(Cn1cncn1)(Cn1cncn1)c1ccc(F)cc1F [FLUCONAZOLE] |  |  |  |  |  |  |  |  |  |  |  | zone of inhibition at 5000 µg/disc (Candida albicans [20]): 25 mm; zone of inhibition at 5000 µg/disc (Candida tropicalis [21]): 25 mm |
| Cc1nn(Cc2n[nH]c(=O)n2Cc2ccccc2)c(=O)n1Cc1ccco1 | inactive | inactive | inactive | 6 mm | 10 mm | 10 mm | 8 mm | inactive | inactive | 6 mm | inactive |  |
| Cc1nn(S(=O)(=O)c2ccccc2)c(=O)n1Cc1ccco1 | 20 mm | 35 mm | inactive | 15 mm | 20 mm | 12 mm | 20 mm | 25 mm | 20 mm | 15 mm | inactive |  |
